Test results reported in patent publication US20120058208A1 (SYNTHITE INDUSTRIES LTD., priority 2010, published 2012).

Legend:
[1] = given dose 50 mg/kg; adjuvant given with curcumin; cited from earlier work
[2] = tested on: HCT-116 human xenograft; experiment: In vivo anti-cancer activity in human colorectal (HCT-116) xenograft model in SCID mice
Method: Human colorectal (HCT-116) xenograft model in SCID mice
Five-week-old female mice purchased from the Advanced Centre for Treatment, Research and Education in Cancer (ACTREC) were used for in vivo experiments. The Institutional Animal Ethics Committee (IAEC) approved the in vivo study. Animals were injected with 1×10^6 HCT-116 cells subcutaneously in the flank region. Animals were monitored daily during the period between inoculation and palpable tumor growth. Tumor size was measured with a digital Vernier caliper and tumor-bearing mice were randomized into control and treatment groups (n=8), when the tumor volume was attained ˜100 mm^3. […] Tumor volume and was body weight was measured twice weekly. The following formula was used to calculate the tumor volume: Tumor volume=[…]. Percent reduction in tumor growth was calculated with respect to the Vehicle treated group.

Structure (SMILES) | enhancement of the bioavailability of curcumin [1] | % Redn. (percent reduction in tumor growth with respect to the Vehicle treated group) ([2]; 150 mg/kg oral once daily for 28 days) | Tumor volume, Mean ± SE, Day 0 ([2]; 150 mg/kg oral once daily, Day 0) | Tumor volume, Mean ± SE, Day 4 ([2]; 150 mg/kg oral once daily, Day 4) | Tumor volume, Mean ± SE, Day 8 ([2]; 150 mg/kg oral once daily, Day 8) | Tumor volume, Mean ± SE, Day 12 ([2]; 150 mg/kg oral once daily, Day 12) | Tumor volume, Mean ± SE, Day 16 ([2]; 150 mg/kg oral once daily, Day 16) | Tumor volume, Mean ± SE, Day 19 ([2]; 150 mg/kg oral once daily, Day 19) | Tumor volume, Mean ± SE, Day 22 ([2]; 150 mg/kg oral once daily, Day 22) | Tumor volume, Mean ± SE, Day 26 ([2]; 150 mg/kg oral once daily, Day 26) | Tumor volume, Mean ± SE, Day 29 ([2]; 150 mg/kg oral once daily, Day 29)
O=C(/C=C/C=C/c1ccc2c(c1)OCO2)N1CCCCC1 [piperine] | 33% | – | – | – | – | – | – | – | – | – | –
CCCCC[C@H](O)CC(=O)CCc1ccc(O)c(OC)c1 [gingerol] | 43% | – | – | – | – | – | – | – | – | – | –
O=C(CCCCCCC(=O)Nc1ccccc1)NO [Vorinostat] | – | 47% | 131.6 ± 23.1 mm^3 | 236.6 ± 42.7 mm^3 | 334.4 ± 52.3 mm^3 | 460.6 ± 76.0 mm^3 | 544.6 ± 79.1 mm^3 | 669.6 ± 107.0 mm^3 | 726.0 ± 120.8 mm^3 | 916.6 ± 157.9 mm^3 | 979.1 ± 157.2 mm^3
